From publication PMC5615061, “Discovery of a Low Toxicity O-GlcNAc Transferase (OGT) Inhibitor by Structure-based Virtual Screening of Natural Products” (Scientific Reports, 2017)
Where two headings read alike, the source gives them in different places.

Target: T1, OGT (O-GlcNAc transferase) (Homo sapiens, UniProt O15294)
T1 construct: full-length OGT, recombinant, purified; plasmid gift of D. J. Vocadlo
T1 sequence (O15294 2-1036 isoform O15294-3): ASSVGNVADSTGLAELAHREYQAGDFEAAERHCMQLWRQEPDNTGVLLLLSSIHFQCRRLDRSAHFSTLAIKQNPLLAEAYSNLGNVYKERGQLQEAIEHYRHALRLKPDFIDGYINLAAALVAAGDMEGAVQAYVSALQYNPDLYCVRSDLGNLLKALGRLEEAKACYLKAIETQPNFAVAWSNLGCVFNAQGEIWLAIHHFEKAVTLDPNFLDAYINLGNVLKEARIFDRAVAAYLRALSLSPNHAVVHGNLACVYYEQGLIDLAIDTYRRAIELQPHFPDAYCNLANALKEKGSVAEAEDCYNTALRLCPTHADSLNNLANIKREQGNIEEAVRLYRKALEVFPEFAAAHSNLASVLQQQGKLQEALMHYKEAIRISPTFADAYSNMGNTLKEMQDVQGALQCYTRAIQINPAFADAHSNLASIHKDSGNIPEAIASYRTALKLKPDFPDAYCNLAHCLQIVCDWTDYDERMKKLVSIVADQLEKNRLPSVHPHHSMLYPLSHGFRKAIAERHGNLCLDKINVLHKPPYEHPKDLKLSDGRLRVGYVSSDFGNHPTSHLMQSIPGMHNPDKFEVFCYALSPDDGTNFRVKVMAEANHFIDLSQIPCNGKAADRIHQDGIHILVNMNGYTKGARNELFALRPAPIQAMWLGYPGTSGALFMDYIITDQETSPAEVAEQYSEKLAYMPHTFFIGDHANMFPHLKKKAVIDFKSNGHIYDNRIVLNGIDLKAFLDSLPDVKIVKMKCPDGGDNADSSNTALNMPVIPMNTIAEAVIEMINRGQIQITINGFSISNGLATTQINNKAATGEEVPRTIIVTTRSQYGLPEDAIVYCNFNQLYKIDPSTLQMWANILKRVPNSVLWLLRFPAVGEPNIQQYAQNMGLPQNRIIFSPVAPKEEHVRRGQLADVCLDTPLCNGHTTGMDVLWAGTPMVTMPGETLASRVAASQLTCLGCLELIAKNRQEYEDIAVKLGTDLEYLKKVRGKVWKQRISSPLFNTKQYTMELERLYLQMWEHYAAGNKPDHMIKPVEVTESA
Test: UDP-Glo glycosyltransferase assay, luminescence
Type: biochemical

Which IC50 (250 nM OGT, 125 μM CKII peptide, 40 μM UDP-GlcNAc, pH 7.4, time-dependent, not fully UDP-GlcNAc competitive) does the source give for `O=C1C[C@@H](c2ccc(O)c(-c3c(O)cc(O)c4c3O[C@H](c3ccc(O)cc3)CC4=O)c2)Oc2cc(O)cc(O)c21` [L01] here?
Its IC50 is 21.8 µM.

Which IC50 does the source give for `COc1ccccc1[C@@H](NS(=O)(=O)c1ccc2[nH]c(=O)ccc2c1)C(=O)N(Cc1ccco1)Cc1cccs1` [OSMI-1] here?
The IC50 was 3.5 µM.
